Ki, IC50 and inhibition data for 19 compounds are collected here from patent US20240150293A1, “SPIROCYCLOHEXANE DERIVATIVES, PHARMACEUTICAL COMPOSITIONS CONTAINING THEM AND THEIR USES AS ANTI-APOPTOTIC INHIBITORS” (LES LABORATOIRES SERVIER, priority 2021, published 2024).

Test [1] concerns the target Cy5-labelled Mcl1 (amino acids 171-321) C286S protein (UniProtKB Q07820) (Homo sapiens (Human), UniProt Q07820, C286S). The test is described as follows: Inhibition of Mcl-1 by the fluorescence quenching assay (Example A, Method B). Type of test: binding. In outline: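 Eleven-point compound series incubated 2 h at room temperature with 1 nM Cy5-tagged protein and quencher-labelled PUMA peptide at 10, 20 or 400 nM in HEPES/NaCl/Tween 20, pH 7.4, 5% DMSO. IC50 for 50% fluorescence increase by 4-parameter fit, then Ki derived (complete cKi or estimated eKi).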

Test [2] concerns H929 multiple myeloma tumor line. Kind of test: In vitro cytotoxicity, MTT assay (Example B, Method A). Type of test: cell-based. Conditions: Homo sapiens, NCI-H929, 48 h, H929 cells, 48 hours exposure, read-out: C50. On the procedure:
The cytotoxicity studies were carried out on the H929 multiple myeloma tumor line.
The cells are distributed onto microplates and exposed to the test compounds for 48 hours. The cell viability is then quantified by a colorimetric assay, the Microculture Tetrazolium Assay (Carmichael et al, Cancer Res. 1987, 47, 939-942).
The results are expressed in C50 which means concentration corresponding to […] of effect/inhibition.

Chain of Cy5-labelled Mcl1 (amino acids 171-321) C286S protein (Q07820 171-321 C286S): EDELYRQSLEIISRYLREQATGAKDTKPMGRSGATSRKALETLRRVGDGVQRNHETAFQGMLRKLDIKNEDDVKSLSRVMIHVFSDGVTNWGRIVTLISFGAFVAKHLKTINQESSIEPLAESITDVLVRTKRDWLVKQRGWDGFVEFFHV

`C[C@@H](COc1ccnc2c1[C@H](C)CCC2)C[C@H]1Cc2ccccc2[C@]12CC[C@@](Nc1ccc(F)c(Br)c1)(C(=O)O)CC2` [Example 712, (1r,2′S,4S)-4-(3-bromo-4-fluoroanilino)-2′-[(2R)-2-methyl-3-{[(5R)-5-methyl-5,6,7,8-tetrahydroquinolin-4-yl]oxy}propyl]-2′,3′-dihydrospiro[cyclohexane-1,1′-indene]-4-carboxylic acid]: the Ki in test [1] worked out at 0.439 nM. Also, the IC50 in test [2] is 74 nM.

With `C[C@@H](COc1ccnc2c1[C@H](C)CCC2)C[C@H]1Cc2ccccc2[C@]12CC[C@](C(=O)O)(N1CCc3c(Cl)cccc31)CC2` [Example 713, (1r,2′S,4S)-4-(4-chloro-2,3-dihydro-1H-indol-1-yl)-2′-[(2R)-2-methyl-3-{[(5R)-5-methyl-5,6,7,8-tetrahydroquinolin-4-yl]oxy}propyl]-2′,3′-dihydrospiro[cyclohexane-1,1′-indene]-4-carboxylic acid], the Ki in test [1] is 3.23 nM. The IC50 in test [2] worked out at 152 nM.

With `C[C@@H](COc1ccnc2c1[C@H](C)CCC2)C[C@H]1Cc2ccccc2[C@]12CC[C@@](Nc1ccnc(Cl)c1)(C(=O)O)CC2` [Example 714, (1r,2′S,4S)-4-[(2-chloropyridin-4-yl)amino]-2′-[(2R)-2-methyl-3-{[(5R)-5-methyl-5,6,7,8-tetrahydroquinolin-4-yl]oxy}propyl]-2′,3′-dihydrospiro[cyclohexane-1,1′-indene]-4-carboxylic acid], the Ki in test [1] amounted to 4.75 nM. Also, the IC50 in test [2] is 1260 nM.

As for `C[C@@H](COc1ccnc2c1[C@H](C)CCC2)C[C@H]1Cc2ccccc2[C@]12CC[C@@](Nc1cccc(C#N)c1)(C(=O)O)CC2` [Example 716, (1r,2′S,4S)-4-(3-cyanoanilino)-2′-[(2R)-2-methyl-3-{[(5R)-5-methyl-5,6,7,8-tetrahydroquinolin-4-yl]oxy}propyl]-2′,3′-dihydrospiro[cyclohexane-1,1′-indene]-4-carboxylic acid], in test [1], the Ki was 4.71 nM. Moreover, the IC50 in test [2] was 311 nM.

Turning to `C[C@@H](COc1ccnc2c1[C@H](C)CCC2)C[C@H]1Cc2ccccc2[C@]12CC[C@@](Sc1cccc(Cl)c1)(C(=O)O)CC2` [Example 718, (1r,2′S,4S)-4-[(3-chlorophenyl)sulfanyl]-2′-[(2R)-2-methyl-3-{[(5R)-5-methyl-5,6,7,8-tetrahydroquinolin-4-yl]oxy}propyl]-2′,3′-dihydrospiro[cyclohexane-1,1′-indene]-4-carboxylic acid], the inhibition at 10 µM in test [1] (@ 10 μM, read-out: Mcl-1 inhibition, % at a single concentration) came out at 14.8%. The IC50 in test [2] was determined as 15900 nM.

Regarding `C[C@@H](COc1ccnc2c1[C@@H](C)CCC2)C[C@H]1Cc2ccccc2[C@]12CC[C@@](Cc1cccc(Cl)c1)(C(=O)O)CC2` [Example 719, (1s,2′S,4R)-4-[(3-chlorophenyl)methyl]-2′-[(2R)-2-methyl-3-{[(5S)-5-methyl-5,6,7,8-tetrahydroquinolin-4-yl]oxy}propyl]-2′,3′-dihydrospiro[cyclohexane-1,1′-indene]-4-carboxylic acid], the Ki in test [1] amounted to 1450 nM. The IC50 in test [2] worked out at 13200 nM.

`CC(O)c1ccc2c(c1)[C@]1(CC[C@@](Nc3cccc(Cl)c3)(C(=O)O)CC1)[C@H](C[C@@H](C)COc1ccnc3ccsc13)C2` (stereo partly drawn) [Example 721, (1r,2′R,4R)-4-(3-chloroanilino)-6′-(1-hydroxyethyl)-2′-{(2R)-2-methyl-3-[(thieno[3,2-b]pyridin-7-yl)oxy]propyl}-2′,3′-dihydrospiro[cyclohexane-1,1′-indene]-4-carboxylic acid]: the Ki in test [1] stood at 2.12 nM. The IC50 in test [2] came out at 670 nM.

In the case of `CC(O)c1ccc2c(c1)[C@]1(CC[C@@](Nc3cccc(Cl)c3)(C(=O)O)CC1)[C@@H](C[C@@H](C)COc1ccnc3ccsc13)C2` (stereo partly drawn) [Example 722, (1r,2′S,4S)-4-(3-chloroanilino)-6′-(1-hydroxyethyl)-2′-{(2R)-2-methyl-3-[(thieno[3,2-b]pyridin-7-yl)oxy]propyl}-2′,3′-dihydrospiro[cyclohexane-1,1′-indene]-4-carboxylic acid], in test [1], the Ki worked out at 0.349 nM. The IC50 in test [2] came to 244 nM.

Regarding `COCCOc1ccc2c(c1)[C@]1(CC[C@@](Nc3cccc(Cl)c3)(C(=O)O)CC1)[C@H](C[C@@H](C)COc1ccnc3ccsc13)C2` [Example 729, (1r,2′R,4R)-4-(3-chloroanilino)-6′-(2-methoxyethoxy)-2′-{(2R)-2-methyl-3-[(thieno[3,2-b]pyridin-7-yl)oxy]propyl}-2′,3′-dihydrospiro[cyclohexane-1,1′-indene]-4-carboxylic acid], the Ki in test [1] is 7.68 nM. Further, in test [2], the IC50 was 864 nM.

For the compound `COCCOc1ccc2c(c1)[C@]1(CC[C@@](Nc3cccc(Cl)c3)(C(=O)O)CC1)[C@@H](C[C@@H](C)COc1ccnc3ccsc13)C2` [Example 730, (1r,2′S,4S)-4-(3-chloroanilino)-6′-(2-methoxyethoxy)-2′-{(2R)-2-methyl-3-[(thieno[3,2-b]pyridin-7-yl)oxy]propyl}-2′,3′-dihydrospiro[cyclohexane-1,1′-indene]-4-carboxylic acid], in test [1], the Ki was 2.1 nM. Moreover, in test [2], the IC50 came to 210 nM.

Take `Cc1cc2c(cc1C)[C@]1(CC[C@@](Nc3cccc(Cl)c3)(C(=O)O)CC1)[C@@H](C[C@@H](C)COc1ccnc3ccsc13)C2` [Example 733, (1r,2′S,4S)-4-(3-chloroanilino)-5′,6′-dimethyl-2′-{(2R)-2-methyl-3-[(thieno[3,2-b]pyridin-7-yl)oxy]propyl}-2′,3′-dihydrospiro[cyclohexane-1,1′-indene]-4-carboxylic acid]: the Ki in test [1] came out at 1.52 nM. In addition, the IC50 in test [2] came out at 211 nM.

Regarding `Cc1cc2c(cc1C)[C@]1(CC[C@@](Nc3cccc(Cl)c3)(C(=O)O)CC1)[C@H](C[C@@H](C)COc1ccnc3ccsc13)C2` [Example 734, (1r,2′R,4R)-4-(3-chloroanilino)-5′,6′-dimethyl-2′-{(2R)-2-methyl-3-[(thieno[3,2-b]pyridin-7-yl)oxy]propyl}-2′,3′-dihydrospiro[cyclohexane-1,1′-indene]-4-carboxylic acid], in test [1], the Ki was determined as 1.98 nM. Moreover, the IC50 in test [2] was 194 nM.

With `C[C@@H](COc1ccnc2ccsc12)C[C@H]1Cc2ccc(F)cc2[C@]12CC[C@@](Nc1cccc(Cl)c1)(C(=O)O)CC2` [Example 735, (1r,2′S,4S)-4-(3-chloroanilino)-6′-fluoro-2′-{(2R)-2-methyl-3-[(thieno[3,2-b]pyridin-7-yl)oxy]propyl}-2′,3′-dihydrospiro[cyclohexane-1,1′-indene]-4-carboxylic acid], in test [1], the Ki worked out at 2.55 nM. Moreover, the IC50 in test [2] came to 433 nM.

Consider `C[C@@H](COc1ccnc2ccsc12)C[C@@H]1Cc2ccc(F)cc2[C@]12CC[C@@](Nc1cccc(Cl)c1)(C(=O)O)CC2` [Example 736, (1r,2′R,4R)-4-(3-chloroanilino)-6′-fluoro-2′-{(2R)-2-methyl-3-[(thieno[3,2-b]pyridin-7-yl)oxy]propyl}-2′,3′-dihydrospiro[cyclohexane-1,1′-indene]-4-carboxylic acid], for which the Ki in test [1] is 5.19 nM. In addition, the IC50 in test [2] turned out to be 1220 nM.

With `C[C@@H](COc1ccnc2ccsc12)C[C@H]1Cc2cc(F)ccc2[C@]12CC[C@@](Nc1cccc(Cl)c1)(C(=O)O)CC2` [Example 737, (1r,2′S,4S)-4-(3-chloroanilino)-5′-fluoro-2′-{(2R)-2-methyl-3-[(thieno[3,2-b]pyridin-7-yl)oxy]propyl}-2′,3′-dihydrospiro[cyclohexane-1,1′-indene]-4-carboxylic acid], the Ki in test [1] was 0.932 nM. Further, the IC50 in test [2] was determined as 191 nM.

As for `C[C@@H](COc1ccnc2ccsc12)C[C@@H]1Cc2cc(F)ccc2[C@]12CC[C@@](Nc1cccc(Cl)c1)(C(=O)O)CC2` [Example 738, (1r,2′R,4R)-4-(3-chloroanilino)-5′-fluoro-2′-{(2R)-2-methyl-3-[(thieno[3,2-b]pyridin-7-yl)oxy]propyl}-2′,3′-dihydrospiro[cyclohexane-1,1′-indene]-4-carboxylic acid], the Ki in test [1] worked out at 7.4 nM. For the same compound, the IC50 in test [2] is 468 nM.

On to `C[C@@H](COc1ccnc2c1[C@H](C)CCC2)CC1=Cc2c(Cl)cccc2[C@]12CC[C@@](Nc1cccc(Cl)c1)(C(=O)O)CC2` [Example 739, (1r,4R)-4′-chloro-4-(3-chloroanilino)-2′-[(2R)-2-methyl-3-{[(5R)-5-methyl-5,6,7,8-tetrahydroquinolin-4-yl]oxy}propyl]spiro[cyclohexane-1,1′-indene]-4-carboxylic acid], for which the Ki in test [1] is 1.5 nM. In test [2], the IC50 worked out at 87.2 nM.

As to `C[C@@H](COc1ccnc2c1[C@H](C)CCC2)CC1=Cc2c(F)c(F)ccc2[C@]12CC[C@@](Nc1cccc(Cl)c1)(C(=O)O)CC2` [Example 744, (1r,4R)-4-(3-chloroanilino)-4′,5′-difluoro-2′-[(2R)-2-methyl-3-{[(5R)-5-methyl-5,6,7,8-tetrahydroquinolin-4-yl]oxy}propyl]spiro[cyclohexane-1,1′-indene]-4-carboxylic acid], the Ki in test [1] was 0.342 nM. Besides, in test [2], the IC50 was determined as 65.2 nM.

With `C[C@@H](COc1ccnc2c1[C@H](C)CCC2)CC1=Cc2c(Cl)c(F)ccc2[C@]12CC[C@@](Nc1cccc(Cl)c1)(C(=O)O)CC2` [Example 745, (1r,4R)-4′-chloro-4-(3-chloroanilino)-5′-fluoro-2′-[(2R)-2-methyl-3-{[(5R)-5-methyl-5,6,7,8-tetrahydroquinolin-4-yl]oxy}propyl]spiro[cyclohexane-1,1′-indene]-4-carboxylic acid], in test [1], the Ki was found to be 1.58 nM. Also, in test [2], the IC50 came out at 66.4 nM.
